#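 Tested at 5 concentrations; 48 h exposure; 96-well plates; endpoints linearly interpolated, else capped at highest concentration. GI50 = concentration required for 50% inhibition of growth.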 The source made the active and inactive calls. No stated cut-off is given here; in the data, active = GI50 up to about 1.1 µM and inactive = higher.
# Tests used:
# Assay in all cases: inhibition of tumour cell growth, NCI panel, 48 h
# DU-145 = tested on: DU-145
# HCT-116 = tested on: HCT-116
# Hs-578T = tested on: Hs-578T
# T47D = tested on: T47D
# U-251 = tested on: U-251
# SK-OV-3 = tested on: SK-OV-3
# SK-MEL-5 = tested on: SK-MEL-5
# M14 = tested on: M14
# A498 = tested on: A498
# UACC-62 = tested on: UACC-62
# OVCAR-4 = tested on: OVCAR-4
# MDA-MB-435 = tested on: MDA-MB-435
# COLO 205 = tested on: COLO 205
# HOP-62 = tested on: HOP-62
# OVCAR-3 = tested on: OVCAR-3
# SN12C = tested on: SN12C
# OVCAR-5 = tested on: OVCAR-5
# HCT-15 = tested on: HCT-15
# A549 = tested on: A549
# NCI-H460 = tested on: NCI-H460
# HOP-92 = tested on: HOP-92
# SF-268 = tested on: SF-268
# MCF7 = tested on: MCF7
# SK-MEL-2 = tested on: SK-MEL-2
# LOX IMVI = tested on: LOX IMVI
# NCI-H23 = tested on: NCI-H23
# MOLT-4 = tested on: MOLT-4
# NCI-H522 = tested on: NCI-H522
# EKVX = tested on: EKVX
# ACHN = tested on: ACHN
# CCRF-CEM = tested on: CCRF-CEM
# K562 = tested on: K562
# UO-31 = tested on: UO-31
# NCI/ADR-RES = tested on: NCI/ADR-RES
# SW-620 = tested on: SW-620
# MDA-N = tested on: MDA-N
# MDA-MB-231 = tested on: MDA-MB-231
# SNB-75 = tested on: SNB-75
# IGROV-1 = tested on: IGROV-1
# HT-29 = tested on: HT-29
# SK-MEL-28 = tested on: SK-MEL-28
# 786-0 = tested on: 786-0
# CAKI-1 = tested on: CAKI-1
# RPMI-8226 = tested on: RPMI-8226
# SF-539 = tested on: SF-539
# KM12 = tested on: KM12
# PC-3 = tested on: PC-3
# Malme-3M = tested on: Malme-3M
# BT-549 = tested on: BT-549
# SF-295 = tested on: SF-295
# SNB-19 = tested on: SNB-19
# OVCAR-8 = tested on: OVCAR-8
# NCI-H226 = tested on: NCI-H226
# HCC 2998 = tested on: HCC 2998
# TK-10 = tested on: TK-10
# HL-60 = tested on: HL-60
# UACC-257 = tested on: UACC-257
# RXF 393 = tested on: RXF 393
compound,measurement,setting,value
CC(C)(NC(=O)OCc1ccccc1)C(=O)OC(=O)C(C)(C)NC(=O)OCc1ccccc1,GI50,DU-145,> 10 µM (inactive)
same,GI50,HCT-116,> 100 µM (inactive)
same,GI50,Hs-578T,> 100 µM (inactive)
same,GI50,T47D,> 100 µM (inactive)
same,GI50,U-251,> 100 µM (inactive)
same,GI50,SK-OV-3,54.2 µM (inactive)
same,GI50,SK-MEL-5,> 100 µM (inactive)
same,GI50,M14,> 100 µM (inactive)
same,GI50,A498,> 100 µM (inactive)
same,GI50,UACC-62,18.3 µM (inactive)
same,GI50,OVCAR-4,> 100 µM (inactive)
same,GI50,MDA-MB-435,> 100 µM (inactive)
same,GI50,COLO 205,> 100 µM (inactive)
same,GI50,HOP-62,> 100 µM (inactive)
same,GI50,OVCAR-3,> 100 µM (inactive)
same,GI50,SN12C,> 100 µM (inactive)
same,GI50,OVCAR-5,> 100 µM (inactive)
same,GI50,HCT-15,> 100 µM
same,GI50,A549,> 100 µM (inactive)
same,GI50,NCI-H460,> 100 µM (inactive)
same,GI50,HOP-92,> 100 µM (inactive)
same,GI50,SF-268,0.653 µM (active)
same,GI50,MCF7,> 100 µM (inactive)
same,GI50,SK-MEL-2,> 100 µM (inactive)
same,GI50,LOX IMVI,> 100 µM (inactive)
same,GI50,NCI-H23,> 100 µM (inactive)
same,GI50,MOLT-4,> 100 µM (inactive)
same,GI50,NCI-H522,> 100 µM (inactive)
same,GI50,EKVX,> 100 µM (inactive)
same,GI50,ACHN,> 100 µM (inactive)
same,GI50,CCRF-CEM,> 100 µM (inactive)
same,GI50,K562,> 100 µM (inactive)
same,GI50,UO-31,> 100 µM (inactive)
same,GI50,NCI/ADR-RES,> 100 µM (inactive)
same,GI50,SW-620,> 100 µM (inactive)
same,GI50,MDA-N,23.6 µM (inactive)
same,GI50,MDA-MB-231,> 100 µM (inactive)
same,GI50,SNB-75,> 100 µM (inactive)
same,GI50,IGROV-1,> 100 µM (inactive)
same,GI50,HT-29,> 100 µM (inactive)
same,GI50,SK-MEL-28,> 100 µM (inactive)
same,GI50,786-0,> 100 µM (inactive)
same,GI50,CAKI-1,> 100 µM (inactive)
same,GI50,RPMI-8226,> 100 µM (inactive)
same,GI50,SF-539,> 100 µM (inactive)
same,GI50,KM12,> 100 µM (inactive)
same,GI50,PC-3,> 100 µM (inactive)
same,GI50,Malme-3M,> 100 µM (inactive)
same,GI50,BT-549,> 100 µM (inactive)
same,GI50,SF-295,> 100 µM (inactive)
same,GI50,SNB-19,> 100 µM (inactive)
same,GI50,OVCAR-8,> 100 µM (inactive)
same,GI50,NCI-H226,> 100 µM (inactive)
CC(=O)c1sc2c(c1O)c(=O)n(-c1ccccc1)c(=S)n2-c1ccccc1,GI50,DU-145,> 100 µM (inactive)
same,GI50,Hs-578T,> 100 µM (inactive)
same,GI50,T47D,> 100 µM (inactive)
same,GI50,U-251,> 100 µM (inactive)
same,GI50,SK-MEL-5,> 100 µM (inactive)
same,GI50,M14,> 100 µM (inactive)
same,GI50,UACC-62,> 100 µM (inactive)
same,GI50,OVCAR-4,> 100 µM (inactive)
same,GI50,MDA-MB-435,> 100 µM (inactive)
same,GI50,HCC 2998,> 100 µM (inactive)
same,GI50,COLO 205,> 100 µM (inactive)
same,GI50,OVCAR-3,> 100 µM (inactive)
same,GI50,SN12C,> 100 µM (inactive)
same,GI50,OVCAR-5,> 100 µM (inactive)
same,GI50,HCT-15,> 100 µM
same,GI50,TK-10,> 100 µM (inactive)
same,GI50,A549,> 100 µM (inactive)
same,GI50,NCI-H460,> 100 µM (inactive)
same,GI50,HOP-92,> 100 µM (inactive)
same,GI50,SF-268,> 100 µM (inactive)
same,GI50,MCF7,> 100 µM (inactive)
same,GI50,SK-MEL-2,> 100 µM (inactive)
same,GI50,LOX IMVI,> 100 µM (inactive)
same,GI50,NCI-H23,> 100 µM (inactive)
same,GI50,MOLT-4,> 100 µM (inactive)
same,GI50,HL-60,> 100 µM (inactive)
same,GI50,NCI-H522,> 100 µM (inactive)
same,GI50,UACC-257,> 100 µM (inactive)
same,GI50,CCRF-CEM,> 10 µM (inactive)
same,GI50,K562,> 100 µM (inactive)
same,GI50,UO-31,> 100 µM (inactive)
same,GI50,SW-620,> 100 µM (inactive)
same,GI50,MDA-N,> 100 µM (inactive)
same,GI50,MDA-MB-231,> 100 µM (inactive)
same,GI50,SNB-75,58.7 µM (inactive)
same,GI50,IGROV-1,> 100 µM (inactive)
same,GI50,HT-29,> 100 µM (inactive)
same,GI50,SK-MEL-28,> 100 µM (inactive)
same,GI50,786-0,> 100 µM (inactive)
same,GI50,RPMI-8226,> 100 µM (inactive)
same,GI50,KM12,> 100 µM (inactive)
same,GI50,Malme-3M,> 100 µM (inactive)
same,GI50,BT-549,95.3 µM (inactive)
same,GI50,SF-295,> 100 µM (inactive)
same,GI50,RXF 393,> 100 µM (inactive)
same,GI50,SNB-19,> 100 µM (inactive)
same,GI50,OVCAR-8,> 100 µM (inactive)
same,GI50,NCI-H226,> 100 µM (inactive)
COc1ccc(/N=N/C(=O)NC(CC(C)C)C(=O)NC(Cc2ccccc2)C(=O)O)cc1 (stereo unspecified),GI50,DU-145,0.634 µM (active)
same,GI50,HCT-116,32.4 µM (inactive)
same,GI50,Hs-578T,> 100 µM (inactive)
same,GI50,T47D,1.06 µM (active)
same,GI50,U-251,> 100 µM (inactive)
same,GI50,SK-MEL-5,2.61 µM (inactive)
same,GI50,M14,0.459 µM (active)
same,GI50,A498,> 100 µM (inactive)
same,GI50,UACC-62,0.711 µM (active)
same,GI50,OVCAR-4,57.5 µM (inactive)
same,GI50,MDA-MB-435,0.705 µM (active)
same,GI50,HCC 2998,2.63 µM (inactive)
same,GI50,COLO 205,1.71 µM (inactive)
same,GI50,HOP-62,> 100 µM (inactive)
same,GI50,OVCAR-3,16.5 µM (inactive)
same,GI50,SN12C,> 100 µM (inactive)
same,GI50,OVCAR-5,1.88 µM (inactive)
same,GI50,HCT-15,0.378 µM
same,GI50,TK-10,> 100 µM (inactive)
same,GI50,A549,2.12 µM (inactive)
same,GI50,NCI-H460,3.78 µM (inactive)
same,GI50,HOP-92,16.2 µM (inactive)
same,GI50,SF-268,1.53 µM (inactive)
same,GI50,MCF7,18.3 µM (inactive)
same,GI50,LOX IMVI,18.2 µM (inactive)
same,GI50,NCI-H23,16.3 µM (inactive)
same,GI50,MOLT-4,0.706 µM (active)
same,GI50,HL-60,0.685 µM (active)
same,GI50,NCI-H522,6.24 µM (inactive)
same,GI50,UACC-257,3.41 µM (inactive)
same,GI50,EKVX,40.3 µM (inactive)
same,GI50,ACHN,0.347 µM (active)
same,GI50,CCRF-CEM,0.929 µM (active)
same,GI50,K562,0.287 µM (active)
same,GI50,UO-31,3.37 µM (inactive)
same,GI50,NCI/ADR-RES,> 100 µM (inactive)
same,GI50,SW-620,7.73 µM (inactive)
same,GI50,MDA-N,0.7 µM (active)
same,GI50,SNB-75,61.4 µM (inactive)
same,GI50,IGROV-1,11.5 µM (inactive)
same,GI50,HT-29,> 100 µM (inactive)
same,GI50,SK-MEL-28,4.85 µM (inactive)
same,GI50,786-0,> 100 µM (inactive)
same,GI50,CAKI-1,> 100 µM (inactive)
same,GI50,RPMI-8226,2.28 µM (inactive)
same,GI50,SF-539,0.31 µM (active)
same,GI50,KM12,11.9 µM (inactive)
same,GI50,PC-3,0.463 µM (active)
same,GI50,Malme-3M,7.55 µM (inactive)
same,GI50,BT-549,> 100 µM (inactive)
same,GI50,SF-295,1.62 µM (inactive)
same,GI50,RXF 393,> 100 µM (inactive)
same,GI50,SNB-19,72.9 µM (inactive)
same,GI50,OVCAR-8,> 100 µM (inactive)
same,GI50,NCI-H226,23.3 µM (inactive)

# Source: ChEMBL document CHEMBL1201862, “PubChem BioAssay data set” (2004)
